# Measured values: US6258830A, “Stable gel formulation for topical treatment of skin conditions” (Allergan Sales, Inc., priority 1999, dated 2001)
# Tests used:
# [1] = In vitro release of AGN from the 0.1% gels, slope of % drug released vs. square root of time; type: physicochemical; settings: Table XVIII, beyond release of 10% of the drug
# Procedure: The release of AGN through each of the 0.1% gels was studied using a previously developed release method. The collected fractions were then assayed directly using HPLC Method HL036.
# The data generated from the assay of the collected fractions for each gel were used to plot the release profile of the drug as the % drug released vs. square root of time. For each release profile, the slope of the linear region containing at least 6 points was calculated using linear regression. The standard deviation and correlation coefficient of each slope was also calculated.
# (§1) The saturated solubility values, and slopes of the line obtained from the plot of % drug released vs. square root of time for each gel were analyzed statistically. […] RS/Discover® was used to calculate equations which fit the data and to construct response surfaces.
# Drug release was studied from all […] formulated gels as described previously. The release profiles for each gel were an average of six runs, and were plotted as % Drug released vs. Square root of time.
# In order to compare the release rates of drug from each formulation, the slope of the linear portion of the plot of % Drug released vs. Square root of time was computed for each of the 18 gels. The slope for each plot was obtained as an average of six runs and based on a correlation coefficient (R^2)>0.94800.
# [2] = Solubility of AGN in various aqueous solutions at 35° ± 0.5° C. (Table I); type: physicochemical
# [3] = Saturated solubility of AGN in the vehicle of the gels (HPLC), with Student's t-test against gel B; type: physicochemical; settings: for solubility: gel vehicle with propionic acid, propionic acid for carbomer
# Procedure: To determine the saturated solubility of the drug in the vehicle of each of the 18 gel formulations, solvent systems containing the same ingredients as the gels were prepared. The saturated solubility was determined once in solutions of the vehicle without carbomer and base, and another time by substituting propionic acid for carbomer in order to ease filtration of the solution while keeping the ionic strength of the solution as close to that of the gel as possible. The solutions were filtered through a 0.45 μm filter to remove any crystals which may have formed. The resulting solutions were then diluted and their drug content was assayed using High Performance Liquid Chromatography (HPLC) as described in Method HL036.
# as §1
# [4] = Solubility of AGN in PEG 400; type: physicochemical; settings: peg 400, organic solvent or mixture
# [5] = Treatment of acne and psoriasis; parameters: species or system humans; settings: in vivo
# [6] = Stability of AGN formulations; type: physicochemical
compound,measurement,setting,value
CCOC(=O)c1ccc(C#Cc2ccc3c(c2)C(C)(C)CCS3)nc1 [AGN],rate of drug release over time,[1],remains constant even after three hours
same,solubility,"[2]; 0.07% Polysorbate 40, 35° C.",3.7 ± 0.6 µg/mL
same,solubility,"[2]; 0.15% Polysorbate 40, 35° C.",9.2 ± 1.4 µg/mL
same,solubility,"[2]; 0.30% Polysorbate 40, 35° C.",18.3 ± 1.8 µg/mL
same,solubility,"[2]; 0.50% Polysorbate 40, 35° C.",33.2 ± 0.3 µg/mL
same,solubility,"[2]; 1% Oleth-20/Water, 35° C.",73.3 ± 3 µg/mL
same,solubility,"[2]; 2% Oleth-20/Water, 35° C.",149.2 ± 0.6 µg/mL
same,solubility,"[2]; 4% Oleth-20/Water, 35° C.",311 ± 7 µg/mL
same,Avg. Solubility,"[2]; 20% Ethanol/Water, 35° C.",Not Detected
same,Avg. Solubility,"[2]; 20% PEG-400/Water, 35° C.",Not Detected
same,solubility,"[2]; 96% Oleth-20/Water, 35° C.",435.2 ± 1.1 µg/mL
same,Avg. Solubility,"[2]; 100% Water, 35° C.",Not Detected
same,solubility,"[2]; organic solvent or mixture, 40% Ethanol/Water, 35° C.",147 ± 20.9 µg/mL
same,solubility,"[2]; organic solvent or mixture, 40% PEG-400/Water, 35° C.",4.4 ± 0.5 µg/mL
same,solubility,"[2]; organic solvent or mixture, 60% Ethanol/Water, 35° C.",22235 ± 7.8 µg/mL
same,solubility,"[2]; organic solvent or mixture, 60% PEG-400/Water, 35° C.",89.6 ± 1.1 µg/mL
same,solubility,"[2]; organic solvent or mixture, 80% Ethanol/Water, 35° C.",8220 ± 221 µg/mL
same,solubility,"[2]; organic solvent or mixture, 80% PEG-400/Water, 35° C.",2160 ± 89.9 µg/mL
same,solubility in water (in words),[2]; water,extremely low
same,drug present in the aqueous based gel in the form of solid particles,[3]; from solubility data,approximately 90%
same,solubility,"[3]; hexylene glycol 0%, polysorbate 40 0.0%, poloxamer 407 0.0%",14.5 ± 0.3 µg/mL
same,solubility,"[3]; hexylene glycol 0%, polysorbate 40 0.0%, poloxamer 407 0.2%",67.9 ± 4.4 µg/mL
same,solubility,"[3]; hexylene glycol 0%, polysorbate 40 0.0%, poloxamer 407 0.4%",87.4 ± 6.6 µg/mL
same,solubility,"[3]; hexylene glycol 0%, polysorbate 40 0.2%, poloxamer 407 0.0%",52.3 ± 2.7 µg/mL
same,solubility,"[3]; hexylene glycol 0%, polysorbate 40 0.2%, poloxamer 407 0.2%",69.7 ± 3.2 µg/mL
same,solubility,"[3]; hexylene glycol 0%, polysorbate 40 0.2%, poloxamer 407 0.4%",80 ± 4 µg/mL
same,solubility,"[3]; hexylene glycol 0%, polysorbate 40 0.4%, poloxamer 407 0.0%",89.3 ± 8.8 µg/mL
same,solubility,"[3]; hexylene glycol 0%, polysorbate 40 0.4%, poloxamer 407 0.2%",77.5 ± 0.8 µg/mL
same,solubility,"[3]; hexylene glycol 0%, polysorbate 40 0.4%, poloxamer 407 0.4%",86.7 ± 6 µg/mL
same,solubility,"[3]; hexylene glycol 2%, polysorbate 40 0.0%, poloxamer 407 0.0%",20.9 ± 1.7 µg/mL
same,solubility,"[3]; hexylene glycol 2%, polysorbate 40 0.0%, poloxamer 407 0.2%",73.7 ± 9 µg/mL
same,solubility,"[3]; hexylene glycol 2%, polysorbate 40 0.0%, poloxamer 407 0.4%",86.3 ± 2.6 µg/mL
same,solubility,"[3]; hexylene glycol 2%, polysorbate 40 0.2%, poloxamer 407 0.0%",75.9 ± 3.5 µg/mL
same,solubility,"[3]; hexylene glycol 2%, polysorbate 40 0.2%, poloxamer 407 0.2%",93.8 ± 0.1 µg/mL
same,solubility,"[3]; hexylene glycol 2%, polysorbate 40 0.2%, poloxamer 407 0.4%",102 ± 2.9 µg/mL
same,solubility,"[3]; hexylene glycol 2%, polysorbate 40 0.4%, poloxamer 407 0.0%",98 ± 11.7 µg/mL
same,solubility,"[3]; hexylene glycol 2%, polysorbate 40 0.4%, poloxamer 407 0.2%",130 ± 6.2 µg/mL
same,solubility,"[3]; hexylene glycol 2%, polysorbate 40 0.4%, poloxamer 407 0.4%",118 ± 3.8 µg/mL
same,solubility,[4],2200 µg/mL
same,activity in the treatment of acne and psoriasis,[5],active in the treatment of acne and psoriasis
same,stabilization of alcoholic solutions containing AGN,[6]; alcoholic solutions with BHT (preformulation report),stabilized by BHT
same,stability of laboratory formulation of AGN,[6]; prepared without ascorbic acid,poor stability
